Measurements reported in the kinase profiling compilation of Christmann-Franck et al. (2016).
Values joined by “and” are separate entries in the source; they are usually repeats but may differ in a detail not shown here. Identical values can stand only once.

Assays:
Test in all cases: Caliper, Mobility shift assay off-chip
[1] = target: AURKC (human) (UniProt Q9UQB9)
[2] = target: CAMK1D (human) (UniProt Q8IU85)
[3] = target: CDK4 (human) (UniProt P11802)
[4] = target: CHEK2 (human) (UniProt O96017)
[5] = target: CLK1 (human) (UniProt P49759)
[6] = target: CSNK1D (human) (UniProt P48730)
[7] = target: DYRK1A (human) (UniProt Q13627)
[8] = target: FLT4 (human) (UniProt P35916)
[9] = target: FYN (human) (UniProt P06241)
[10] = target: GSK3B (human) (UniProt P49841)
[11] = target: HIPK4 (human) (UniProt Q8NE63)
[12] = target: IKBKB (human) (UniProt O14920)
[13] = target: INSRR (human) (UniProt P14616)
[14] = target: LYN (human) (UniProt P07948)
[15] = target: MAPK11 (human) (UniProt Q15759)
[16] = target: MAPK3 (human) (UniProt P27361)
[17] = target: MYLK2 (human) (UniProt Q9H1R3)
[18] = target: NEK4 (human) (UniProt P51957)
[19] = target: NEK7 (human) (UniProt Q8TDX7)
[20] = target: NUAK1 (human) (UniProt O60285)
[21] = target: PAK1 (human) (UniProt Q13153)
[22] = target: PAK6 (human) (UniProt Q9NQU5)
[23] = target: PLK3 (human) (UniProt Q9H4B4)
[24] = target: PRKAA1 (human) (UniProt Q13131)
[25] = target: PRKCA (human) (UniProt P17252)
[26] = target: PRKCI (human) (UniProt P41743)
[27] = target: PRKG2 (human) (UniProt Q13237)
[28] = target: PRKX (human) (UniProt P51817)
[29] = target: PTK6 (human) (UniProt Q13882)
[30] = target: SGK2 (human) (UniProt Q9HBY8)
[31] = target: SIK1 (human) (UniProt P57059)
[32] = target: TSSK2 (human) (UniProt Q96PF2)
[33] = target: TYK2 JH1 JH2 (human) (UniProt P29597)
[34] = target: FLT3 (human) (UniProt P36888)

Sequence of PRKX (human) (P51817 whole entry, looked up): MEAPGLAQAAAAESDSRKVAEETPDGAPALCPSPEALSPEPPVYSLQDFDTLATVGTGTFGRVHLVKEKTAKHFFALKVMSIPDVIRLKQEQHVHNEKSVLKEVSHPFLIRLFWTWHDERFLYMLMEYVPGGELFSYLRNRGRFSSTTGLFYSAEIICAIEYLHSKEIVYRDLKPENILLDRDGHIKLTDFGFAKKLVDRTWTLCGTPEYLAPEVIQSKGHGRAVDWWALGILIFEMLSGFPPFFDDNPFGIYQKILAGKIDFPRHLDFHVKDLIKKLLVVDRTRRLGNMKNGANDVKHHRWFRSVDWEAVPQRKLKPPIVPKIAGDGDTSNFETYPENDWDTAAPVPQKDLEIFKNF
Sequence of PRKCI (human) (P41743 whole entry, looked up): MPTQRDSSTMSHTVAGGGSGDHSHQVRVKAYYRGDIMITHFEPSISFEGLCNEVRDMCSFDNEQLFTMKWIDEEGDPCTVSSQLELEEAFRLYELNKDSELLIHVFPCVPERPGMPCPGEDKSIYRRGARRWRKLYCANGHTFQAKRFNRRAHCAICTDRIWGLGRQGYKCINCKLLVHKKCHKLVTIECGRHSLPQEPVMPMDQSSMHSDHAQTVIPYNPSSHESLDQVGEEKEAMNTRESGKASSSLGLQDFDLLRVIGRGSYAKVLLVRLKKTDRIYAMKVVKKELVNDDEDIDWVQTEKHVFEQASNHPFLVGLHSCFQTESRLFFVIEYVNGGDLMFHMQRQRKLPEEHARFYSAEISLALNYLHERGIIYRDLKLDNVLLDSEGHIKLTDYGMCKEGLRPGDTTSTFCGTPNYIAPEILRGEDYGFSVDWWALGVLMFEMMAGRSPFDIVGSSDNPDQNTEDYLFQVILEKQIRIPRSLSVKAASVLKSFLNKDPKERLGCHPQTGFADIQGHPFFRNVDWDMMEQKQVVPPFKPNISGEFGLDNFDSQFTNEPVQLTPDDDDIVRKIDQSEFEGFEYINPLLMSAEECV
Sequence of CHEK2 (human) (O96017 whole entry, looked up): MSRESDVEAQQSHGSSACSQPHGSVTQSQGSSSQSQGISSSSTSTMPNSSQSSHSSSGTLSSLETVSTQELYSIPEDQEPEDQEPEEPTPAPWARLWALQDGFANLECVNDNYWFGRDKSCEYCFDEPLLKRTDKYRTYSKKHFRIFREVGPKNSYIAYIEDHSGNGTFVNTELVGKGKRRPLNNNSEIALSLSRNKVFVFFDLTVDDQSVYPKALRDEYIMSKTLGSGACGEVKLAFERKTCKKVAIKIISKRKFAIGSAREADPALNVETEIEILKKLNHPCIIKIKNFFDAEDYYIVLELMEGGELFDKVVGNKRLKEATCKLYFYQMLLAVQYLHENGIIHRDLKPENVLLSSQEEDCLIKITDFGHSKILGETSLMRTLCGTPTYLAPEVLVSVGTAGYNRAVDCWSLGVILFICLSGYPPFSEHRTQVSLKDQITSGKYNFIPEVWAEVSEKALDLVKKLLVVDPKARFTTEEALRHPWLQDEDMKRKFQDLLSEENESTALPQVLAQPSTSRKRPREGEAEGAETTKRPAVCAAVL
Sequence of CDK4 (human) (P11802 whole entry, looked up): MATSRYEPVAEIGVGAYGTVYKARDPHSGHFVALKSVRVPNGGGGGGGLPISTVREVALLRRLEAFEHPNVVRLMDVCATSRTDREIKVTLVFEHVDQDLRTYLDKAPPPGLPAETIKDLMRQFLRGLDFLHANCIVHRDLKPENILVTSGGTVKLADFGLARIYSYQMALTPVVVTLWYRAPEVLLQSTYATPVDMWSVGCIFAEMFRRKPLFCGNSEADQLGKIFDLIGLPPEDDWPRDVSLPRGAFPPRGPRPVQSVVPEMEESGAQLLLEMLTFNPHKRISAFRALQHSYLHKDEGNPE
Sequence of SGK2 (human) (Q9HBY8 whole entry, looked up): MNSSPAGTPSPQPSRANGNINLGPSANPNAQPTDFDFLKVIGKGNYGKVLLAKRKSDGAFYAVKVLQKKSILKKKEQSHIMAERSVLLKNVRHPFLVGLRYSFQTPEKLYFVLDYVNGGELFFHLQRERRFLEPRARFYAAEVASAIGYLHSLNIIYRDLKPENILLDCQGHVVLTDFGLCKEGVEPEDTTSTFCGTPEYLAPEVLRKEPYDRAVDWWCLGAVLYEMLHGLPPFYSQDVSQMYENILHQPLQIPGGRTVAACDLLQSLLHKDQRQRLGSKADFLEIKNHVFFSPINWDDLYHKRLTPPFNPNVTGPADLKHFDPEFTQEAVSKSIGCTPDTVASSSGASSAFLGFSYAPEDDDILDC
Sequence of NUAK1 (human) (O60285 whole entry, looked up): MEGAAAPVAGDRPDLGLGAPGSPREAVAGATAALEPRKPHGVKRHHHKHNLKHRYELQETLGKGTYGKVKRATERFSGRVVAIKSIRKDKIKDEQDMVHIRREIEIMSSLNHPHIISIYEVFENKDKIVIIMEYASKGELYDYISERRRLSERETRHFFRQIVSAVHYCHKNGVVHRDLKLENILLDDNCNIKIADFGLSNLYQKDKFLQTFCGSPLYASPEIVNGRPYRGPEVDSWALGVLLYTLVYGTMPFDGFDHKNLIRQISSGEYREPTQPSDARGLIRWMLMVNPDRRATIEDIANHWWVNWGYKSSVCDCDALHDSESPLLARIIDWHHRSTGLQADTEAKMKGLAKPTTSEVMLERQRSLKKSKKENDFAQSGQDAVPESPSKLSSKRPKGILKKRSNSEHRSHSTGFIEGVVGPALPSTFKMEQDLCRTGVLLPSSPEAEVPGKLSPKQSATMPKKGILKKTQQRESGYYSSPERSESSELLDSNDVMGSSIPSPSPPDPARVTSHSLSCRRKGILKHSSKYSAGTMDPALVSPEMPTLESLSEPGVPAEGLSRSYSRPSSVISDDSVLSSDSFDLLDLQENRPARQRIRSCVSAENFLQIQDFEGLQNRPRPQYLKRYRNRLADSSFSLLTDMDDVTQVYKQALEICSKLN
Sequence of HIPK4 (human) (Q8NE63 whole entry, looked up): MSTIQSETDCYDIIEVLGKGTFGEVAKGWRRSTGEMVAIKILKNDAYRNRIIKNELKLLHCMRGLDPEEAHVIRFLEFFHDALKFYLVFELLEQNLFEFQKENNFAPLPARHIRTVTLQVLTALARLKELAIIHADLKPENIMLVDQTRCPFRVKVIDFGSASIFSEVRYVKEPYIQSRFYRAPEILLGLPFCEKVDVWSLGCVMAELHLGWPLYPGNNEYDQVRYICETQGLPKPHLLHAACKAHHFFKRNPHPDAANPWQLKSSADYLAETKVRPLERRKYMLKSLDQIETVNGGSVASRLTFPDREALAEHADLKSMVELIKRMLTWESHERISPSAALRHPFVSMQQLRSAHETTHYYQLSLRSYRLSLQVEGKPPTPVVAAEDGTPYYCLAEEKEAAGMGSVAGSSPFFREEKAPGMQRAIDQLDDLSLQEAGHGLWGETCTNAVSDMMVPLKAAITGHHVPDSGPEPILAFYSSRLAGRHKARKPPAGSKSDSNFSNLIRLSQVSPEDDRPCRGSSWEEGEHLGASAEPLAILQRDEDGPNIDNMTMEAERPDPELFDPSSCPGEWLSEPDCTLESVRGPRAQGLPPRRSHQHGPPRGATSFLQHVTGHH
Sequence of PRKG2 (human) (Q13237 whole entry, looked up): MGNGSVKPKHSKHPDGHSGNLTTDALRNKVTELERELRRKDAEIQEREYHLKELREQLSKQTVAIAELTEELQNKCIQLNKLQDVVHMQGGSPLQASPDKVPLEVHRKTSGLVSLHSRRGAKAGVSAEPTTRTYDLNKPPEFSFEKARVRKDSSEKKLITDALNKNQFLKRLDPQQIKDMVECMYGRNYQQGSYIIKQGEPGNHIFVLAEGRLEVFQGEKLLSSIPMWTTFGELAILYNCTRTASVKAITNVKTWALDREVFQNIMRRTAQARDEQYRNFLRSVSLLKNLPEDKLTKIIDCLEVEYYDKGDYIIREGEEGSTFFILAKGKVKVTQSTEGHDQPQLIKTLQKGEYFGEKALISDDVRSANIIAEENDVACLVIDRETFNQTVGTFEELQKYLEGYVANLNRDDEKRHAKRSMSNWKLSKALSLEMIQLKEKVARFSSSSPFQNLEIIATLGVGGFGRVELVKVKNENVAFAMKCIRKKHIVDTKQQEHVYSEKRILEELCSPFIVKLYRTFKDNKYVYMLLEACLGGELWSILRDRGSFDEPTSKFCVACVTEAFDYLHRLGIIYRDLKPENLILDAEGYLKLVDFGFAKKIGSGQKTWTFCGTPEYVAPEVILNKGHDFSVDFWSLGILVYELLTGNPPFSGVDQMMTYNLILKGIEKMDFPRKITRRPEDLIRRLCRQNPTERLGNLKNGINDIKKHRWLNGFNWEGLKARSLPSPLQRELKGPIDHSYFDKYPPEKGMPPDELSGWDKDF
Sequence of NEK7 (human) (Q8TDX7 whole entry, looked up): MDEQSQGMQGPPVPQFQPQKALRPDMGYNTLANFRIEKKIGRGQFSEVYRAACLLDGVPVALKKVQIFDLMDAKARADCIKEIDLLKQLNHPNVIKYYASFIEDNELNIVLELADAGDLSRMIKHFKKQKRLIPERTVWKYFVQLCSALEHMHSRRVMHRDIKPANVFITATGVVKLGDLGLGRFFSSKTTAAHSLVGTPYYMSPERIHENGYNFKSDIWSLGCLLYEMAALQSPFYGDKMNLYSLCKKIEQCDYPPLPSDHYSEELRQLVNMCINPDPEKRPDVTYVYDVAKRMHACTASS
Sequence of MAPK3 (human) (P27361 whole entry, looked up): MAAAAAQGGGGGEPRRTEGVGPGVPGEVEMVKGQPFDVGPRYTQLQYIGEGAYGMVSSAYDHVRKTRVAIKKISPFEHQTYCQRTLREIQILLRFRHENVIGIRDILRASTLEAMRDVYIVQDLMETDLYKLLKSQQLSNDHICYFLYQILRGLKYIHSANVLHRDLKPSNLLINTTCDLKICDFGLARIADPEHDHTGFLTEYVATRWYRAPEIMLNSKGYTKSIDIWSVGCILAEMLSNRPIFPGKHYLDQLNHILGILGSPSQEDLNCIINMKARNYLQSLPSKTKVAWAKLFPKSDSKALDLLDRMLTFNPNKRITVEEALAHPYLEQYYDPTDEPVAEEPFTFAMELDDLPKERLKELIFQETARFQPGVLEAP

`CNC(=O)c1cc(Oc2ccc(NC(=O)Nc3ccc(Cl)c(C(F)(F)F)c3)cc2)ccn1` gave an inhibition ([1]; compound 0.02 µM) of 0%, an inhibition ([1]; compound 0.2 µM) of 11.8% and an inhibition ([2]; compound 0.02 µM) of -6.7%. It also gave an inhibition ([2]; compound 0.2 µM) of 3.1%, an inhibition ([3]; compound 0.02 µM) of -2.3% and an inhibition ([3]; compound 0.2 µM) of -2.5%. For the same molecule, the inhibition ([4]; compound 0.02 µM) was -0.8%, the inhibition ([4]; compound 0.2 µM) was 2.2% and the inhibition ([5]; compound 0.02 µM) was -7%. The inhibition ([5]; compound 0.2 µM) was 8.1%, the inhibition ([6]; compound 0.02 µM) was -2.4% and -2.9% and the inhibition ([6]; compound 0.2 µM) was -3.6%. For the same molecule, the inhibition ([7]; compound 0.02 µM) was -7.5%, the inhibition ([7]; compound 0.2 µM) was 3.6% and the inhibition ([8]; compound 0.02 µM) was 61.6%. The inhibition ([8]; compound 0.2 µM) was 98.5%, the inhibition ([9]; compound 0.02 µM) was -2.5% and the inhibition ([9]; compound 0.2 µM) was 14.5%. The inhibition ([10]; compound 0.02 µM) was -6.7%, the inhibition ([10]; compound 0.2 µM) was 2.9% and the inhibition ([11]; compound 0.02 µM) was 84%. It also gave an inhibition ([11]; compound 0.2 µM) of 98.4%, an inhibition ([12]; compound 0.02 µM) of 0.9% and an inhibition ([12]; compound 0.2 µM) of 1.4%. The inhibition ([13]; compound 0.02 µM) was -6.9%, the inhibition ([13]; compound 0.2 µM) was -3% and the inhibition ([14]; compound 0.02 µM) was -5% and -0.3%. The inhibition ([14]; compound 0.2 µM) was 35.2% and 36.9%, the inhibition ([15]; compound 0.02 µM) was 10.4% and the inhibition ([15]; compound 0.2 µM) was 62.3%. For the same molecule, the inhibition ([16]; compound 0.02 µM) was -2.3%, the inhibition ([16]; compound 0.2 µM) was -0.7% and the inhibition ([17]; compound 0.02 µM) was -3.3%. For the same molecule, the inhibition ([17]; compound 0.2 µM) was -2.4%, the inhibition ([18]; compound 0.02 µM) was -3% and the inhibition ([18]; compound 0.2 µM) was -0.8%. The inhibition ([19]; compound 0.02 µM) was -3.3%, the inhibition ([19]; compound 0.2 µM) was -3.3% and the inhibition ([20]; compound 0.02 µM) was -3.8%. It also gave an inhibition ([20]; compound 0.2 µM) of 3.8%, an inhibition ([21]; compound 0.02 µM) of -0.9% and an inhibition ([21]; compound 0.2 µM) of 1.1%. The inhibition ([22]; compound 0.02 µM) was -6.6%, the inhibition ([22]; compound 0.2 µM) was -32.1% and the inhibition ([23]; compound 0.02 µM) was 4%. The inhibition ([23]; compound 0.2 µM) was 5.3%, the inhibition ([24]; compound 0.02 µM) was -5.7% and the inhibition ([24]; compound 0.2 µM) was 10.7%. The inhibition ([25]; compound 0.02 µM) was 1.2%, the inhibition ([25]; compound 0.2 µM) was 12.2% and the inhibition ([26]; compound 0.02 µM) was -0.2%. It also gave an inhibition ([26]; compound 0.2 µM) of 5.7%, an inhibition ([27]; compound 0.02 µM) of -4.4% and an inhibition ([27]; compound 0.2 µM) of -0.6%. For the same molecule, the inhibition ([28]; compound 0.02 µM) was -7%, the inhibition ([28]; compound 0.2 µM) was 0.2% and the inhibition ([29]; compound 0.02 µM) was -0.9%. For the same molecule, the inhibition ([29]; compound 0.2 µM) was -0.8%, the inhibition ([30]; compound 0.02 µM) was -0.9% and the inhibition ([30]; compound 0.2 µM) was 8.4%. The inhibition ([31]; compound 0.02 µM) was -3.4%, the inhibition ([31]; compound 0.2 µM) was 7.3% and the inhibition ([32]; compound 0.02 µM) was -3.9%. It also gave an inhibition ([32]; compound 0.2 µM) of -2.4% and an inhibition ([33]; compound 0.02 µM) of -2.4%.
In the case of `CCN(CC)CCNC(=O)c1c(C)[nH]c(/C=C2\C(=O)Nc3ccc(F)cc32)c1C`, the inhibition ([1]; compound 0.2 µM) was 23.2%, the inhibition ([1]; compound 4.0 µM) was 87.1% and the inhibition ([3]; compound 0.2 µM) was 16.6%. For the same molecule, the inhibition ([3]; compound 4.0 µM) was 62.5%, the inhibition ([4]; compound 0.2 µM) was 78.8% and the inhibition ([4]; compound 4.0 µM) was 98.8%. The inhibition ([6]; compound 4.0 µM) was 86.1% and 97.8%, the inhibition ([7]; compound 0.2 µM) was 23% and the inhibition ([7]; compound 4.0 µM) was 82.1%. The inhibition ([34]; compound 0.2 µM) was 100%, the inhibition ([34]; compound 4.0 µM) was 102% and the inhibition ([8]; compound 0.2 µM) was 88.2%. It also gave an inhibition ([8]; compound 4.0 µM) of 101%, an inhibition ([9]; compound 0.2 µM) of 45.3% and an inhibition ([9]; compound 4.0 µM) of 93.3%. For the same molecule, the inhibition ([10]; compound 0.2 µM) was 1.1%, the inhibition ([10]; compound 4.0 µM) was 23.7% and the inhibition ([11]; compound 0.2 µM) was 67.4%. It also gave an inhibition ([11]; compound 4.0 µM) of 96.8%, an inhibition ([12]; compound 0.2 µM) of -2.1% and an inhibition ([12]; compound 4.0 µM) of 4.2%. The inhibition ([13]; compound 0.2 µM) was 75.7%, the inhibition ([13]; compound 4.0 µM) was 101% and the inhibition ([14]; compound 0.2 µM) was 67.3% and 70.3%. The inhibition ([14]; compound 4.0 µM) was 98.3% and 99.7%, the inhibition ([15]; compound 0.2 µM) was -1.4% and the inhibition ([15]; compound 4.0 µM) was -3.1%. It also gave an inhibition ([16]; compound 0.2 µM) of -4.8%, an inhibition ([16]; compound 4.0 µM) of -0.9% and an inhibition ([17]; compound 0.2 µM) of 81.9%. The inhibition ([18]; compound 0.2 µM) was -2.5%, the inhibition ([18]; compound 4.0 µM) was 8.9% and the inhibition ([19]; compound 0.2 µM) was -1.4%. It also gave an inhibition ([19]; compound 4.0 µM) of -5.6%, an inhibition ([20]; compound 0.2 µM) of 95.6% and an inhibition ([20]; compound 4.0 µM) of 101%. The inhibition ([21]; compound 0.2 µM) was -2.8%, the inhibition ([21]; compound 4.0 µM) was 1.8% and the inhibition ([22]; compound 0.2 µM) was 6%. For the same molecule, the inhibition ([22]; compound 4.0 µM) was 22.2%, the inhibition ([23]; compound 0.2 µM) was 0.9% and the inhibition ([23]; compound 4.0 µM) was 0.1%. It also gave an inhibition ([24]; compound 0.2 µM) of 62.6%, an inhibition ([24]; compound 4.0 µM) of 98.7% and an inhibition ([25]; compound 0.2 µM) of 0.1%. The inhibition ([25]; compound 4.0 µM) was 28.7%, the inhibition ([26]; compound 0.2 µM) was -2% and the inhibition ([26]; compound 4.0 µM) was 7.8%. It also gave an inhibition ([27]; compound 0.2 µM) of 9.3%, an inhibition ([27]; compound 4.0 µM) of 65.5% and an inhibition ([28]; compound 0.2 µM) of 7.7%. It also gave an inhibition ([28]; compound 4.0 µM) of 66.3%, an inhibition ([29]; compound 0.2 µM) of 17.6% and an inhibition ([29]; compound 4.0 µM) of 82.3%. The inhibition ([30]; compound 0.2 µM) was 5.5%, the inhibition ([30]; compound 4.0 µM) was 57.6% and the inhibition ([31]; compound 0.2 µM) was 15%. For the same molecule, the inhibition ([31]; compound 4.0 µM) was 76.1%, the inhibition ([32]; compound 0.2 µM) was -0.6% and the inhibition ([32]; compound 4.0 µM) was 35.3%. The inhibition ([33]; compound 0.2 µM) was 21.6% and the inhibition ([33]; compound 4.0 µM) was 78.3%.
